Patent US12252457B2, “Compositions and methods for reducing tactile dysfunction, anxiety, and social impairment” (President and Fellows of Harvard College, priority 2018, dated 2025)
“Also recorded” adds a separate entry of the source. Counter-ions that a name gives are not always drawn.

System: mutant mice (Advillin^Cre; Mecp2^f/y, Advillin^Cre; Shank3^f/f, Advillin^Cre; Gabrb3^f/+, Advillin^Cre; Gabrb3^f/f)
Test: Tactile prepulse inhibition (PPI) assay and response to air puff alone, acute Compound 5
Type: in vivo, mouse
Details: 2 mg/kg i.p.
Description: FIG. 1 is a graph showing percent inhibition of an acoustic startle response (PPI) to a 125-dB noise (pulse), when the startle noise was preceded by a light air puff (prepulse, 0.9 PSI, 50 ms) at an interstimulus interval of 250 ms. Values are expressed as percent of control littermates' performance. Experiments were performed in mutant mice (Advillin^Cre; Mecp2^f/y, Advillin^Cre; Shank3^f/f) and control littermates, 30 minutes after an intraperitoneal injection of either saline (vehicle) the peripherally restricted Compound 5 (2 mg/kg). Two-way ANOVA, with post-hoc Holm-Sidak's test, *, p<0.05, when comparing mutants to control within same treatment; I, p<0.05, or p<0.10, when comparing the same genotype across different treatments.
FIG. 2 is a graph showing response to a light air puff stimulus alone (0.9 PSI, 50 ms). Responses are expressed as a percent of startle response to a 125-B noise. Experiments were performed in mutant mice (Advillin^Cre; Mecp2^f/y, Advillin^Cre; Shank3^f/f) and control littermates, 30 minutes after an intraperitoneal injection of either saline (vehicle) the peripherally restricted Compound 5 (2 mg/kg). Two-way ANOVA, with post-hoc Holm-Sidak's test, *, p<0.05, when comparing mutants to control within same treatment; I, p<0.05, when comparing the same genotype across different treatments.
FIG. 3 is a graph showing magnitude of startle response to a 125-dB noise. Experiments were performed in mutant mice (Advillin^Cre; Mecp2^f/y, Advillin^Cre; Shank3^f/f) and control littermates, 30 minutes after an intraperitoneal injection of either saline (vehicle) the peripherally restricted Compound 5 (2 mg/kg).
FIG. 4 is a graph showing the percent inhibition of an acoustic startle response (PPI) to a 125-dB noise (pulse), when the startle noise was preceded by a light air puff (prepulse, 0.9 PSI, 50 ms) at an interstimulus interval of 250 ms. Values were expressed as percent of control littermates' performance. Experiments were performed in mutant mice (Advillin^Cre; Mecp2^f/y, Advillin^Cre; Shank3^f/f, Advillin^Cre; Gabrb^3f/+, Advillin^Cre; Gabrb3^f/f) and control littermates, 30 minutes after an intraperitoneal injection of either saline (vehicle) or Compound 5 at 2 mg/kg. […] Two-way ANOVA, with post-hoc Holm-Sidak's test, *, p<0.05, when comparing mutants to control within same treatment; t, p<0.05, or #, p<0.10, when comparing the same genotype across different treatments.
FIG. 5 is a graph showing the response to a light air puff stimulus alone (0.9 PSI, 50 ms). Responses were expressed as a percent of startle response to a 125-B noise. Experiments were performed in mutant mice (Advillin^Cre; Mecp2^f/y, Advillin^Cre; Shank3^f/f, Advillin^Cre; Gabrb3^f/+, Advillin^Cre; Gabrb3^f/f) and control littermates, 30 minutes after an intraperitoneal injection of either saline (vehicle) or Compound 5 at 2 mg/kg. […] Two-way ANOVA, with post-hoc Holm-Sidak's test, *, p<0.05, when comparing mutants to control within same treatment; f, p<0.05, when comparing the same genotype across different treatments. […]
FIGS. 1 and 4 show the percent inhibition of an acoustic startle response (PPI) to a 125-dB noise (pulse), when the startle noise was preceded by a light aft puff (prepulse, 0.9 PSI, 50 ms) at an interstimulus interval of 250 ms. Values were expressed as percent of control littermates' performance. […]

[1] = Advillin^Cre, Mecp2^f/y, Shank3^f/f, Gabrb3^f/+ mice, 30 min, vs saline

NC1C=C(C(=O)O)CCC1 (centres unmarked) [Compound 5, 3-aminocyclohex-1-enecarboxylic acid hydrochloride]
tactile (hairy skin) sensitivity in mice with complete loss of GABA-A receptors on peripheral somatosensory neurons (Advillin^Cre, Gabrb3^f/f mice, 30 min, hydrochloride, 2 mg/kg): do not show a reduction in tactile sensitivity; also recorded: did not show any improvements in hairy skin sensitivity | responsivity to a light air puff stimulus alone (0.9 PSI, 50 ms) [1]: reduced responsivity to an air puff stimulus | tactile PPI performance [1]: reduced tactile PPI performance | hairy skin hypersensitivity (tactile PPI assay and response to air puff stimulus alone) (Mecp2, Shank3 and Gabrb3 heterozygous conditional mutant mice, 30 minutes after injection, hydrochloride, 2 mg/kg): reduces hairy skin over-reactivity; also recorded: significantly reduced hairy skin hypersensitivity; also recorded: reduces hairy skin hypersensitivity | motor behaviors or sedation, average startle amplitude elicited by a 125-dB noise (mutant mice and control littermates, 30 min, hydrochloride, 2 mg/kg): did not have negative effects on motor behaviors or sedation; also recorded: no significant differences between any genotypes or treatment groups
